Columns and labels:
Type in all cases: functional
[1] = Growth inhibition of human OVCAR5 cells assessed as cell growth at 10^-5 M after 48 hrs by sulforhodamine B assay; settings: OVCAR-5, 48 h, read-out: Activity
[2] = Growth inhibition of human Hs 578T cells assessed as cell growth at 10^-5 M after 48 hrs by sulforhodamine B assay; settings: read-out: Activity
[3] = Growth inhibition of human OVCAR4 cells assessed as cell growth at 10^-5 M after 48 hrs by sulforhodamine B assay; settings: OVCAR-4, 48 h, read-out: Activity
K562 = assay: Growth inhibition of human K562 cells assessed as cell growth at 10^-5 M after 48 hrs by sulforhodamine B assay; settings: K562, 48 h, read-out: Activity
[4] = Growth inhibition of human UACC62 cells assessed as cell growth at 10^-5 M after 48 hrs by sulforhodamine B assay; settings: UACC-62, 48 h, read-out: Activity
MCF7 = assay: Growth inhibition of human MCF7 cells assessed as cell growth at 10^-5 M after 48 hrs by sulforhodamine B assay; settings: MCF7, 48 h, read-out: Activity
HL-60(TB) = assay: Growth inhibition of human HL-60(TB) cells assessed as cell growth at 10^-5 M after 48 hrs by sulforhodamine B assay; settings: HL-60, 48 h, read-out: Activity
[5] = Growth inhibition of human OVCAR8 cells assessed as cell growth at 10^-5 M after 48 hrs by sulforhodamine B assay; settings: OVCAR-8, 48 h, read-out: Activity
SK-MEL-5 = assay: Growth inhibition of human SK-MEL-5 cells assessed as cell growth at 10^-5 M after 48 hrs by sulforhodamine B assay; settings: SK-MEL-5, 48 h, read-out: Activity
HOP-62 = assay: Growth inhibition of human HOP62 cells assessed as cell growth at 10^-5 M after 48 hrs by sulforhodamine B assay; settings: HOP-62, 48 h, read-out: Activity
SR = assay: Growth inhibition of human SR cells assessed as cell growth at 10^-5 M after 48 hrs by sulforhodamine B assay; settings: read-out: Activity
DU-145 = assay: Growth inhibition of human DU145 cells assessed as cell growth at 10^-5 M after 48 hrs by sulforhodamine B assay; settings: DU-145, 48 h, read-out: Activity
NCI-H522 = assay: Growth inhibition of human NCI-H522 cells assessed as cell growth at 10^-5 M after 48 hrs by sulforhodamine B assay; settings: NCI-H522, 48 h, read-out: Activity
NCI-H226 = assay: Growth inhibition of human NCI-H226 cells assessed as cell growth at 10^-5 M after 48 hrs by sulforhodamine B assay; settings: NCI-H226, 48 h, read-out: Activity
[6] = Growth inhibition of human UO31 cells assessed as cell growth at 10^-5 M after 48 hrs by sulforhodamine B assay; settings: UO-31, 48 h, read-out: Activity
SN12C = assay: Growth inhibition of human SN12C cells assessed as cell growth at 10^-5 M after 48 hrs by sulforhodamine B assay; settings: read-out: Activity
M14 = assay: Growth inhibition of human M14 cells assessed as cell growth at 10^-5 M after 48 hrs by sulforhodamine B assay; settings: M14, 48 h, read-out: Activity
[7] = Growth inhibition of human HCT15 cells assessed as cell growth at 10^-5 M after 48 hrs by sulforhodamine B assay; settings: HCT-15, 48 h, read-out: Activity
[8] = Growth inhibition of human LOXIMVI cells assessed as cell growth at 10^-5 M after 48 hrs by sulforhodamine B assay; settings: LOX IMVI, read-out: Activity
A498 = assay: Growth inhibition of human A498 cells assessed as cell growth at 10^-5 M after 48 hrs by sulforhodamine B assay; settings: A498, 48 h, read-out: Activity
SNB-19 = assay: Growth inhibition of human SNB19 cells assessed as cell growth at 10^-5 M after 48 hrs by sulforhodamine B assay; settings: SNB-19, 48 h, read-out: Activity
[9] = Growth inhibition of human HOP92 cells assessed as cell growth at 10^-5 M after 48 hrs by sulforhodamine B assay; settings: HOP-92, 48 h, read-out: Activity
T47D = assay: Growth inhibition of human T47D cells assessed as cell growth at 10^-5 M after 48 hrs by sulforhodamine B assay; settings: read-out: Activity
MDA-MB-435 = assay: Growth inhibition of human MDA-MB-435 cells assessed as cell growth at 10^-5 M after 48 hrs by sulforhodamine B assay; settings: MDA-MB-435, 48 h, read-out: Activity
MDA-MB-468 = assay: Growth inhibition of human MDA-MB-468 cells assessed as cell growth at 10^-5 M after 48 hrs by sulforhodamine B assay; settings: MDA-MB-468, 48 h, read-out: Activity
SF-268 = assay: Growth inhibition of human SF268 cells assessed as cell growth at 10^-5 M after 48 hrs by sulforhodamine B assay; settings: SF-268, 48 h, read-out: Activity
COLO 205 = assay: Growth inhibition of human COLO205 cells assessed as cell growth at 10^-5 M after 48 hrs by sulforhodamine B assay; settings: COLO 205, 48 h, read-out: Activity
[10] = Growth inhibition of human BT549 cells assessed as cell growth at 10^-5 M after 48 hrs by sulforhodamine B assay; settings: BT-549, 48 h, read-out: Activity
NCI-H322M = assay: Growth inhibition of human NCI-H322M cells assessed as cell growth at 10^-5 M after 48 hrs by sulforhodamine B assay; settings: read-out: Activity
RPMI-8226 = assay: Growth inhibition of human RPMI8226 cells assessed as cell growth at 10^-5 M after 48 hrs by sulforhodamine B assay; settings: RPMI-8226, 48 h, read-out: Activity
SK-MEL-28 = assay: Growth inhibition of human SK-MEL-28 cells assessed as cell growth at 10^-5 M after 48 hrs by sulforhodamine B assay; settings: SK-MEL-28, 48 h, read-out: Activity
MDA-MB-231 = assay: Growth inhibition of human MDA-MB-231 cells assessed as cell growth at 10^-5 M after 48 hrs by sulforhodamine B assay; settings: MDA-MB-231, 48 h, read-out: Activity
SK-OV-3 = assay: Growth inhibition of human SKOV3 cells assessed as cell growth at 10^-5 M after 48 hrs by sulforhodamine B assay; settings: SK-OV-3, 48 h, read-out: Activity
IGROV-1 = assay: Growth inhibition of human IGROV1 cells assessed as cell growth at 10^-5 M after 48 hrs by sulforhodamine B assay; settings: IGROV-1, 48 h, read-out: Activity
ACHN = assay: Growth inhibition of human ACHN cells assessed as cell growth at 10^-5 M after 48 hrs by sulforhodamine B assay; settings: read-out: Activity
CCRF-CEM = assay: Growth inhibition of human CCRF-CEM cells assessed as cell growth at 10^-5 M after 48 hrs by sulforhodamine B assay; settings: read-out: Activity

## Cc1ccc(S(=O)(=O)N2C/C(=C\c3cc(F)cc(F)c3)C(=O)/C(=C/c3cc(F)cc(F)c3)C2)cc1
[1]
  growth at 10 µM: -65%
[2]
  growth at 10 µM: 8%
[3]
  growth at 10 µM: -31.4%
K562
  growth at 10 µM: -19%
[4]
  growth at 10 µM: -96%
MCF7
  growth at 10 µM: -75.4%
HL-60(TB)
  growth at 10 µM: -14%
[5]
  growth at 10 µM: -44%
SK-MEL-5
  growth at 10 µM: -92%
HOP-62
  growth at 10 µM: -60%
SR
  growth at 10 µM: -21%
DU-145
  growth at 10 µM: -65%
NCI-H522
  growth at 10 µM: -84%
NCI-H226
  growth at 10 µM: 47%
[6]
  growth at 10 µM: -92%
SN12C
  growth at 10 µM: -86%
M14
  growth at 10 µM: -68%
[7]
  growth at 10 µM: -35%
[8]
  growth at 10 µM: -98%
A498
  growth at 10 µM: -59%
SNB-19
  growth at 10 µM: -97%
[9]
  growth at 10 µM: -51%
T47D
  growth at 10 µM: -20%
MDA-MB-435
  growth at 10 µM: -76.6%
MDA-MB-468
  growth at 10 µM: -73%
SF-268
  growth at 10 µM: -43%
COLO 205
  growth at 10 µM: -73%
[10]
  growth at 10 µM: -89%
NCI-H322M
  growth at 10 µM: 25%
RPMI-8226
  growth at 10 µM: -36%
SK-MEL-28
  growth at 10 µM: -87%
MDA-MB-231
  growth at 10 µM: -53%
SK-OV-3
  growth at 10 µM: -26%
IGROV-1
  growth at 10 µM: -77%
ACHN
  growth at 10 µM: -91.4%
CCRF-CEM
  growth at 10 µM: -23%
